Experimental data published in patent US10508092B2, “Synthesis of novel analogs of diptoindonesin G, compounds formed thereby, and pharmaceutical compositions containing them” (Wisconsin Alumni Research Foundation, priority 2016, dated 2019).

Columns and labels:
[1] = Maximum tolerated dose in mouse models; details: in vivo, five days out of seven
Experimental: (§1) Dip G was synthesized as described and formulated for the in vivo treatment. Dip G was prepared by dissolving the stock powder in 100% DMSO to a final concentration of 50 mg/ml. This stock solution was then diluted 1:5 into a 40% polyethylene glycol (PEG300)/40% normal saline (0.9% NaCl) solution to a final concentration of 20% Dip G solution. […] To determine MTD, escalating doses of Dip G dissolved in the aforementioned formulation were injected retro-orbitally or by oral gavage daily, five days out of seven to determine the MTD. […] (Data not shown.) Dip G was intra-tumorally delivered to ERα-positive T47D xenografted mice three times a week and the tumors were monitored for three weeks. […] (AST ELISAs are available commercially from several suppliers, including Abcam, Cambridge, Mass.)

[2] = Toxicity observations in treated mice (AST ELISA, gross tissue, injection site); assay type: in vivo
Experimental: as §1
Mice were monitored twice weekly for weight changes and tumor growth (measured in diameter and volume) with calipers. Following tumors reaching an appropriate size (˜5 mm in diameter, taking approximately 3 months after grafting), intra-tumoral injections were begun with vehicle containing 20 mg/kg of Dip G or control vehicle in a total volume of 50 μL split between tumors on each mammary fat pad. Three mice (6 tumors) received control injections and eight (16 tumors) received Dip G. Injections were administered 3 times per week with at least one day of rest between injections, for a total of 10-12 injections. Cohorts were sacrificed by cage individually in numerical order, beginning with the 10th injection and sacrificing one cage per injection for pharmacokinetic time points from that injection onward. In mice with very small tumors, dosing was switched from intra-tumoral to subcutaneous at later time points.

[3] = tested on: estrogen receptor β (ERβ); details: breast cancer, Zhao et al. 2015; cited from earlier work

Question: With `O=C1c2c(O)cc(O)cc2-c2c(-c3ccc(O)cc3)oc3cc(O)cc1c23` [Dip G, diptoindonesin G] as the molecule, how does the MTD ([1]; oral gavage daily) read?
Answer: Its MTD is 50 mg/kg.

Question: What about the MTD ([1]; other: retro-orbital injection, retro-orbital injection daily) of the same molecule?
Answer: Its MTD is 20 mg/kg.

Question: And the liver toxicity ([2]; AST ELISA assay)?
Answer: The liver toxicity was “undetectable”.

Question: What about the AST activity ([2]; aspartate aminotransferase ELISA, treated xenograft mice) of the same molecule?
Answer: Its AST activity is “around 70 milliunits/mL”.

Question: What about the toxicity in vivo ([2]; high concentrations) of the same molecule?
Answer: Its toxicity in vivo is “No obvious toxicity”.

Question: What about the “signs around the tumor and the site of injection” value ([2]; intra-tumoral injection, not observed with vehicle only) of the same molecule?
Answer: The value was “subcutaneous bleeding, bruising, and discoloration”.

Question: What about the gross tissue damage ([2]; liver, lung, kidney, brain, and heart) of the same molecule?
Answer: Its gross tissue damage is “no gross tissue damages were observed”.

Question: And the “stability of ERβ” value [3]?
Answer: The value was “increases the stability”.
